Where two headings read alike, the source gives them in different places.
Key:
[1] = tested on: D. russelii venom proteases (SVMP); experiment: Proteolytic activity of venom and its inhibition; format: biochemical, Daboia russelii; conditions: for IC50: read-out: IC50 (inhibition of venom proteolytic activity)
[2] = tested on: D. russelii venom-induced lethality; experiment: Preclinical efficacy: preincubation model of envenoming; format: in vivo, mice; conditions: for Percentage of survival: i.v., 24 h, n=5
[3] = tested on: D. russelii venom-induced lethality; experiment: Preclinical efficacy: rescue experiments; format: in vivo, mice; conditions: 24 h, n=5
[4] = tested on: murine C2C12 skeletal muscle myoblast cells; format: cell-based; conditions: for cytotoxicity of the inhibitor alone: 100 μM, C2C12 cells, no venom; for reduction of venom-induced cytotoxicity: GA, KL and MP venoms, SMI 0–100 μM
[5] = tested on: human platelet-poor plasma, extrinsic pathway (PT); experiment: Coagulation assay: prothrombin time; format: biochemical
human fibrinogen = experiment: Fibrinogenolytic activity of venom and its inhibition; format: biochemical
[6] = tested on: human platelet-poor plasma, intrinsic pathway (aPTT); experiment: Coagulation assay: activated partial thromboplastin time; format: biochemical
[7] = RJ venom, SMI 120 µg/mouse, venom alone mean 3 min
[8] = KA venom 2.5x LD50 preincubated with SMI 60 µg/mouse
[9] = PB venom 2.5x LD50 preincubated with SMI 60 µg/mouse
[10] = PB venom 2.5x LD50 preincubated with SMI 120 µg/mouse
[11] = RJ venom 2.5x LD50 preincubated with SMI 60 µg/mouse
[12] = TN venom 2.5x LD50 preincubated with SMI 60 µg/mouse
[13] = WB venom 2.5x LD50 preincubated with SMI 60 µg/mouse
[14] = MP venom 2.5x LD50 i.p., SMI 120 µg/mouse (each) i.v. at 0 min
[15] = TN, WB and RJ venoms, SMI 0–100 μM (each)
[16] = KA and RJ venoms, SMI up to 100 µM (each)
[17] = TN, KL, GA and MH venoms, SMI 0–100 µM, concentration-dependent

With `N=C(N)c1ccc2cc(OC(=O)c3ccc(N=C(N)N)cc3)ccc2c1` [nafamostat, Nafamostat] the “inhibition of the protease activity of D. russelii venom” value ([1]; AP venom (Fig. S1), 0–100 µM) was “failed to inhibit”, the “extension of survival time over venom alone” value (“extension … over venom alone” for short) ([2]; RJ venom, SMI 120 µg/mouse) was 160 x and the “mean survival time of mice (onset of lethality)” value [2, 7] was 480 min.

For `CNC(=O)[C@@H](NC(=O)[C@H](CC(C)C)[C@H](O)C(=O)NO)C(C)(C)C` [marimastat, Marimastat], the IC50 ([1]; GA (Goa) venom) was 2.33 µM, the IC50 ([1]; MP venom) was 1.51 µM and the IC50 ([1]; RJ (Rajasthan) venom) was 1.67 µM. For the same molecule, the Percentage of survival [2, 8] was “sufficient to neutralise the lethal effects”, the Percentage of survival [2, 9] was “failed to protect” and the Percentage of survival [2, 10] was “complete protection”. The Percentage of survival [2, 11] was “failed to protect”, the “extension … over venom alone” value ([2]; RJ venom, SMI 120 µg/mouse) was 12 x and the “mean survival time of mice (onset of lethality)” value [2, 7] was 36 min. The Percentage of survival [2, 12] was “failed to protect”, the Percentage of survival ([2]; TN venom 2.5x LD50 preincubated with SMI 120 µg/mouse) was “complete protection” and the Percentage of survival [2, 13] was “failed to protect”. The “% of survival” value ([3]; KA venom 2.5x LD50 i.p., SMI 120 µg/mouse i.v. at 0 min) was 40%, the “% of survival” value [3, 14] was 40% and the “% of survival” value ([3]; PB venom 2.5x LD50 i.p., SMI 120 µg/mouse i.v. at 0 min) was “ineffective”. The “cytotoxicity of the inhibitor alone” value [4] was “Neither inhibitor exhibited cytotoxicity”, the “inhibition of venom-induced cytotoxicity” value ([4]; AP venom 50 µg/ml, SMI 0–100 µM) was 94.89% and the “reduction of venom-induced cytotoxicity” value [4] was 72.88–94.85%. For the same molecule, the “inhibition of venom-induced cytotoxicity” value [4, 15] was 41.20–70.51%, the “inhibition of venom-induced PT alterations” value [5, 16] was “ineffective” and the “inhibition of venom-induced PT alterations” value ([5]; MP and AP venoms, SMI up to 100 µM (each)) was “failed to inhibit”. The “inhibition of venom-induced PT alterations” value ([5]; PB and WB venoms, SMI 0–100 µM) was “capable of inhibiting”, the “reversal of venom-induced PT alterations” value [5, 17] was “reversed” and the “protection against venom-induced fibrinogenolysis” value (human fibrinogen; PB, KA, KL, AP, GA and RJ venoms, SMI 100 µM) was “very effective”. The “protection against venom-induced fibrinogenolysis” value (human fibrinogen; TN, MH, MP and WB venoms, SMI 100 µM (each)) was “did not completely neutralise”, the “inhibition of venom-induced aPTT alterations” value ([6]; AP and MP venoms, SMI 0–100 µM) was “capable of inhibiting” and the “inhibition of venom-induced aPTT alterations” value [6, 16] was “ineffective”. For the same molecule, the “inhibition of venom-induced aPTT alterations” value ([6]; PB and WB venoms, SMI up to 100 µM (each)) was “failed to inhibit” and the “reversal of venom-induced aPTT alterations” value [6, 17] was “reversed”.

For `CCc1c(C(=O)C(N)=O)c2c(OCC(=O)O)cccc2n1Cc1ccccc1` [varespladib, Varespladib], the Percentage of survival ([2]; AP venom 2.5x LD50 preincubated 30 min with SMI 60 µg/mouse) was “failed to protect”, the Percentage of survival ([2]; AP venom 2.5x LD50 preincubated with SMI 120 µg/mouse) was “failing to prevent lethality” and the “extension … over venom alone” value ([2]; KA and AP venoms (both), SMI 120 µg/mouse) was 13 x. For the same molecule, the “mean survival time of mice” value ([2]; KA and AP venoms (both), SMI 120 µg/mouse, venom alone mean 3 min) was 39 min, the Percentage of survival [2, 8] was “failed to protect” and the Percentage of survival ([2]; KA venom 2.5x LD50 preincubated with SMI 120 µg/mouse) was “failing to prevent lethality”. The Percentage of survival [2, 9] was “failed to protect”, the Percentage of survival ([2]; PB venom 2.5x LD50 preincubated with SMI 90 µg/mouse) was 80% and the Percentage of survival [2, 10] was “complete protection”. The Percentage of survival [2, 11] was 40%, the Percentage of survival ([2]; RJ venom 2.5x LD50 preincubated with SMI 90 µg/mouse) was 60% and the Percentage of survival [2, 12] was “failed to protect”. The Percentage of survival ([2]; TN venom 2.5x LD50 preincubated with SMI 90 µg/mouse) was “completely protected”, the Percentage of survival [2, 13] was 40% and the “% of survival” value [3, 14] was 60%. For the same molecule, the “% of survival” value ([3]; PB venom 2.5x LD50 i.p., SMI 120 µg/mouse i.v. at 30 min) was “complete protection”, the “cytotoxicity of the inhibitor alone” value [4] was “Neither inhibitor exhibited cytotoxicity” and the “reduction of venom-induced cytotoxicity” value [4] was 72.88–94.85%. For the same molecule, the “inhibition of venom-induced cytotoxicity” value ([4]; MH venom 50 µg/ml, SMI 0–100 µM) was 88.67%, the “inhibition of venom-induced cytotoxicity” value ([4]; PB venom 50 µg/ml, SMI 0–100 µM) was 85.32% and the “inhibition of venom-induced cytotoxicity” value [4, 15] was 41.20–70.51%. For the same molecule, the “inhibition of venom-induced PT alterations” value ([5]; TN venom, 100 µM) was “failed to prevent coagulopathy” and the “inhibition of venom-induced aPTT alterations” value ([6]; TN venom, 100 µM) was “failed to prevent coagulopathy”.

— publication PMC12152178 (Communications Medicine, 2025)
